Results reported in US11208412B2 (DAEGU-GYEONGBUK MEDICAL INNOVATION FOUNDATION, priority 2017, dated 2021).

Columns and labels:
Experiment in all cases: Kinase selectivity, DiscoverX scanMAX Kinase assay panel (% control)
Type in all cases: binding
[1] = target: T1, kinases of the scanMAX Kinase assay panel (Homo sapiens, UniProt P49759); conditions: CLK1; 1 uM
T1 construct: purchased DiscoverX Co. (contract measurement) scanMAX Kinase assay panel
How it was run: (§1)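 Read-out is % control, normalised so a positive-control compound sits at 0% and DMSO at 100%: (test − positive)/(negative − positive)×100. Each kinase received the compound at 1 uM in DMSO. A value below 35% counts as activity.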

[2] = target: T2, kinases of the scanMAX Kinase assay panel (Homo sapiens, UniProt Q9Y6R4); conditions: MAP3K4; 1 uM
T2 construct: purchased DiscoverX Co. (contract measurement) scanMAX Kinase assay panel
T2 sequence (Q9Y6R4 whole entry): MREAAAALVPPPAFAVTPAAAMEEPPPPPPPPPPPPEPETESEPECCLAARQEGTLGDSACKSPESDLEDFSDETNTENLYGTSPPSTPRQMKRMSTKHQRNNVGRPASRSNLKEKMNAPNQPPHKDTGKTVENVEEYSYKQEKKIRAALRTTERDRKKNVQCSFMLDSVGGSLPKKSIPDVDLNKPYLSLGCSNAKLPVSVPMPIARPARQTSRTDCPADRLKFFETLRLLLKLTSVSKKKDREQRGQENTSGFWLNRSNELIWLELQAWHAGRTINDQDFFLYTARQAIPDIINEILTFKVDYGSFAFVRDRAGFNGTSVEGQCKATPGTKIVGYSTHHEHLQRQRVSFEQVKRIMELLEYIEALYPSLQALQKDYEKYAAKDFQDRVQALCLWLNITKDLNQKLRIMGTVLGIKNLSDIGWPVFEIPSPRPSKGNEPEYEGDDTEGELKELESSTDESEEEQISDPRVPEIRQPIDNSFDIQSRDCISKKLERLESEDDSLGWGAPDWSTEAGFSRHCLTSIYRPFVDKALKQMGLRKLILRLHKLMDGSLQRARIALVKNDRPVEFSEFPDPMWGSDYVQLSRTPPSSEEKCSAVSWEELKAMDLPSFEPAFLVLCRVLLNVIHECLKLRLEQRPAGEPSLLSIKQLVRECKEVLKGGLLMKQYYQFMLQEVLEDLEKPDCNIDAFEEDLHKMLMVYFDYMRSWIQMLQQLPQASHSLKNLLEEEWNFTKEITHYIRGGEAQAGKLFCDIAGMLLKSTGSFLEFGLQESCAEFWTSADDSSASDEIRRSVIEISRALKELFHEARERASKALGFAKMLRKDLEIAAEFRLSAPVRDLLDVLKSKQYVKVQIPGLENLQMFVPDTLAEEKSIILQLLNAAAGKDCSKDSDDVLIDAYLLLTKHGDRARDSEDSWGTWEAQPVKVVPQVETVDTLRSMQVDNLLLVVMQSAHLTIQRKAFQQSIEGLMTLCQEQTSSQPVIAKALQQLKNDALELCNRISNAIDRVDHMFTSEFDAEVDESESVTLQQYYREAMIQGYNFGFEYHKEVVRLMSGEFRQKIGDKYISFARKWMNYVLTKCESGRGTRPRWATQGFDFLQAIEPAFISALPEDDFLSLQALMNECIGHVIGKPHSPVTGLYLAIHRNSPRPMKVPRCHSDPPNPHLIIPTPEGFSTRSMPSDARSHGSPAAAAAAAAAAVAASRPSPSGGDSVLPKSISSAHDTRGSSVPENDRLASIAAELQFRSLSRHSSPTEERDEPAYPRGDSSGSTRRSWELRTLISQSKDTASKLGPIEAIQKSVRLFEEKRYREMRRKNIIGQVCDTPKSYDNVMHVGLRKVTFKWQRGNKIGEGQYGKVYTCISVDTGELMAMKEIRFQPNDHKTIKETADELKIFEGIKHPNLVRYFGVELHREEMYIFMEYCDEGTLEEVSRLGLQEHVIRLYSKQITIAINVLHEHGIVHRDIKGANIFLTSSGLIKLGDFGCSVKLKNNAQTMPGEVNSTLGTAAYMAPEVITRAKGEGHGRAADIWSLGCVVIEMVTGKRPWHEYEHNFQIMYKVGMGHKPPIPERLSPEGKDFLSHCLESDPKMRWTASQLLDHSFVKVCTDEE
How it was run: as §1

[3] = target: T3, kinases of the scanMAX Kinase assay panel (Homo sapiens, UniProt P10721, D816H); conditions: KIT(D816H); 1 uM
T3 construct: purchased DiscoverX Co. (contract measurement) scanMAX Kinase assay panel
T3 sequence (P10721 26-976 D816H): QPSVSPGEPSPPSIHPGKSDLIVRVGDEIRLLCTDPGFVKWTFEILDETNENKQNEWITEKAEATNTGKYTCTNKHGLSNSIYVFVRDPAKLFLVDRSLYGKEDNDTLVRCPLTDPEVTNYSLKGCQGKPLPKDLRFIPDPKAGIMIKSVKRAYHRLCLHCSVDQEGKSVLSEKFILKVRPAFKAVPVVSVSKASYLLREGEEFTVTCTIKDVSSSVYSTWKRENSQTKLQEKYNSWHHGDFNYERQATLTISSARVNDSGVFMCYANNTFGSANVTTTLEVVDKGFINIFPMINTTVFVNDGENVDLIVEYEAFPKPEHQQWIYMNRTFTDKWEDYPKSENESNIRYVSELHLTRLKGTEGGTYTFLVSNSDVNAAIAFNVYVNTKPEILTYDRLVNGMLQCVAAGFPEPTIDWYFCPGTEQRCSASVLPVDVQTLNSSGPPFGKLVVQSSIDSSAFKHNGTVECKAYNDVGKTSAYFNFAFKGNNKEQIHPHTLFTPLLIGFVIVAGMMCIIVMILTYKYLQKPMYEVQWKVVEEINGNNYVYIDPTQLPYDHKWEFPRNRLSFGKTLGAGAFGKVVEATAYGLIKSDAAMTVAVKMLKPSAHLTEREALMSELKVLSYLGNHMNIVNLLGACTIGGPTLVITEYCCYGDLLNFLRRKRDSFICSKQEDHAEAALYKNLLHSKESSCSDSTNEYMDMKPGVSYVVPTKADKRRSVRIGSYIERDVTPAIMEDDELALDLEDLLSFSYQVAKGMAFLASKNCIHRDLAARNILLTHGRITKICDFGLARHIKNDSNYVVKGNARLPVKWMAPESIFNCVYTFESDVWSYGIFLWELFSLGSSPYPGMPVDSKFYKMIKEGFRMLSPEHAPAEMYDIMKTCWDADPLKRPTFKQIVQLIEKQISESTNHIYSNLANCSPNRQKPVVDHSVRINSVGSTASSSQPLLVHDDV
How it was run: as §1

[4] = target: T4, kinases of the scanMAX Kinase assay panel (Homo sapiens, UniProt P36897); conditions: kinase TGFBR1; 1 uM in DMSO
T4 construct: purchased DiscoverX Co. (contract measurement) scanMAX Kinase assay panel
T4 sequence (P36897 34-503): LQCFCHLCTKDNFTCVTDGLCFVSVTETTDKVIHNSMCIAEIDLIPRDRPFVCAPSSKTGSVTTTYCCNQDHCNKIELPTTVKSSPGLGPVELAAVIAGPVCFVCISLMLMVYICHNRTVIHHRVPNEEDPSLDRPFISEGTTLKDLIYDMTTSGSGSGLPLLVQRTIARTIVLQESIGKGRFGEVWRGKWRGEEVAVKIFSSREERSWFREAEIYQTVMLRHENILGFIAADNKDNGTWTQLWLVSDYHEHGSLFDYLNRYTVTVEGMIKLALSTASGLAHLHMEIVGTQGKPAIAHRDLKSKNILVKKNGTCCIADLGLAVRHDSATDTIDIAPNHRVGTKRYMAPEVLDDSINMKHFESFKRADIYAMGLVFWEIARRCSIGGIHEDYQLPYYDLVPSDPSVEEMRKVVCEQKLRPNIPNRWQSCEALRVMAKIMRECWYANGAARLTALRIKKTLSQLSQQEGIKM
How it was run: as §1

[5] = target: T5, kinases of the scanMAX Kinase assay panel (Homo sapiens, UniProt Q8NE63); conditions: HIPK4; 1 uM
T5 construct: purchased DiscoverX Co. (contract measurement) scanMAX Kinase assay panel
T5 sequence (Q8NE63 1-616): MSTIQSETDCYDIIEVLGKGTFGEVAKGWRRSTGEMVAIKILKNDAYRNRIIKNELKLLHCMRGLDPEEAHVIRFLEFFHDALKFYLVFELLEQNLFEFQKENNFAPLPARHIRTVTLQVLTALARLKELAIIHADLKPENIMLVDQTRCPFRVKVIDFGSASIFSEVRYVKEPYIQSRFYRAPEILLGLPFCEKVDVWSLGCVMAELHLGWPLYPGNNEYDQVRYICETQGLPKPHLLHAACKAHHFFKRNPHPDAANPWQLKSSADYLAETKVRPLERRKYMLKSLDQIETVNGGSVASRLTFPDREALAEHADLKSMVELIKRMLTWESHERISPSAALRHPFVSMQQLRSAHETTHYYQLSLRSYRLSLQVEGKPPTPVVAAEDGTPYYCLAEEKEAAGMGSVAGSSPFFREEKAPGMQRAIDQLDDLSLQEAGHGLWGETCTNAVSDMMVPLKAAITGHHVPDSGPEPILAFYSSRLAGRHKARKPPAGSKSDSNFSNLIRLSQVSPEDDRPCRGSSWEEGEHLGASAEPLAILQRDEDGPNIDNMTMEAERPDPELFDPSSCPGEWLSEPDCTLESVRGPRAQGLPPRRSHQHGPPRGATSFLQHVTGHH
How it was run: as §1

T1 sequence (P49759 whole entry): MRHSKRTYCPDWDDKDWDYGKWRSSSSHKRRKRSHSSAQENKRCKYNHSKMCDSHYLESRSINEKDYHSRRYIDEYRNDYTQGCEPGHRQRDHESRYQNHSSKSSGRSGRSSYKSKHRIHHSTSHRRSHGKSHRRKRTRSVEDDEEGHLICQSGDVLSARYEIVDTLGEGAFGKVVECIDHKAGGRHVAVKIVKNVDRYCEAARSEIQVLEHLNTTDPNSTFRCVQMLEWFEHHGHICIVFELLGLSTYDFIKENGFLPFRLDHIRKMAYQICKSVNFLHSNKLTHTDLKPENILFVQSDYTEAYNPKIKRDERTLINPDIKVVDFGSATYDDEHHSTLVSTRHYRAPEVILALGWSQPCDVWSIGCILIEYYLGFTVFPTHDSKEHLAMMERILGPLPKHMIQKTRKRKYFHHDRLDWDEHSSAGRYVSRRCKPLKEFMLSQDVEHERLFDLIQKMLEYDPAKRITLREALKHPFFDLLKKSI

SMILES: CCNc1nc(Nc2ccc(C(=O)N3CCC(N4CCOCC4)CC3)cc2OC)nc2[nH]cc(C(F)(F)F)c12 [Example 104, (4-((4-(ethylamino)-5-(trifluoromethyl)-7H-pyrrolo[2,3-d]pyrimidine-2-yl)amino)-3-methoxyphenyl)(4-morpholinopiperidine-1-yl)methanone]
- remaining binding at 1 µM [1]: 0.15%
- remaining binding at 1 µM [2]: 97%
- remaining binding at 1 µM [3]: 100%
- remaining binding at 1 µM [4]: 100%
- remaining binding at 1 µM [5]: 45%

SMILES: CNc1nc(Nc2ccc(C(=O)N3CCOCC3)cc2OC)nc2[nH]cc(C#N)c12 [Example 1, 2-((2-methoxy-4-(morpholine-4-carbonyl)phenyl)amino)-4-(methylamino)-7H-pyrrolo[2,3-d]pyrimidine-5-carbonitrile]
- remaining binding at 1 µM [1]: 1.8%
- remaining binding at 1 µM [2]: 100%
- remaining binding at 1 µM [3]: 77%
- remaining binding at 1 µM [4]: 5.1%
- remaining binding at 1 µM [5]: 95%

SMILES: CC1(Nc2nc(Nc3cnn([C@H]4CCN(C5COC5)C[C@@H]4F)c3Cl)nc3[nH]cc(C#N)c23)CC1 [Example 52, 2-((5-chloro-1-((3S,4S)-3-fluoro-1-(oxetane-3-yl)piperidine-4-yl)-1H-pyrazole-4-yl)amino)((1-methylcyclopropyl)amino)-7H-pyrrolo[2,3-d]pyrimidine-5-carbonitrile]
- remaining binding at 1 µM [1]: 0.6%
- remaining binding at 1 µM [2]: 77%
- remaining binding at 1 µM [3]: 8.1%
- remaining binding at 1 µM [4]: 91%
- remaining binding at 1 µM [5]: 39%
